Laboratory results reported in patent publication US5342980A, “Fungicidal agents” (American Cyanamid Company, priority 1992, dated 1994).

Key:
[1] = test system: Pyricularia oryzae; format: in vivo; settings: 200 ppm, plants sprayed before inoculation
[2] = test system: Plasmopara viticola; assay: In vivo fungicidal evaluation, Grape Downy Mildew (GDM); settings: 200 ppm, plants sprayed before inoculation
[3] = test system: Pseudocercosporella herpotrichoides; assay: In vitro fungicidal evaluation, growth inhibition (PSDCHE); format: cell-based; parameters: scale not given here; settings: 25 ppm, 3-4 days at 21° C.
Method: (§1) Test compounds are dissolved in acetone and dispersed into cell well plates containing a suspension of ground fungal mycelia in a nutrient broth. Assay plates are incubated for 3-4 days at 21° C. Growth inhibition is measured visually and is rated using the following scale:
(§2) Untreated controls, solvent blanks and reference standards are included in each test.
(§3) Assay fungi include the plant pathogens, Pythium ultimum (Pythul); Rhizoctonia solani (Rhizso); Fusarium oxysporum f. sp. cucumerinum (Fusoxc); and Pseudocercosporella herpotrichoides (Psdche).
(§4) When more than one test is run, the data are averaged.

[4] = test system: Erysiphe graminis f. sp. tritici; assay: In vivo fungicidal evaluation, Wheat Powdery Mildew (WPM); settings: 200 ppm, plants sprayed before inoculation
[5] = test system: Botrytis cinerea; assay: In vivo fungicidal evaluation, Pepper Botrytis (PB); settings: 200 ppm, plants sprayed before inoculation
[6] = test system: Venturia inaequalis; assay: In vivo fungicidal evaluation, Apple Scab (AS); settings: 200 ppm, plants sprayed before inoculation
[7] = test system: Fusarium oxysporum f. sp. cucumerinum; assay: In vitro fungicidal evaluation, growth inhibition (FUSOXC); format: cell-based; parameters: scale not given here; settings: 25 ppm, 3-4 days at 21° C.
Method: as §1, §2, §3, §4

[8] = test system: Rhizoctonia solani; assay: In vitro fungicidal evaluation, growth inhibition (RHIZSO); format: cell-based; parameters: scale not given here; settings: 25 ppm, 3-4 days at 21° C.
Method: as §1, §2, §3, §4

[9] = test system: Pythium ultimum; assay: In vitro fungicidal evaluation, growth inhibition (PYTHUL); format: cell-based; parameters: scale not given here; settings: 25 ppm, 3-4 days at 21° C.
Method: as §1, §2, §3, §4

[10] = test system: Cercospora beticola; assay: In vivo fungicidal evaluation, Sugar Beet Cercospora (SBC); settings: plants sprayed before inoculation
[11] = test system: Alternaria solani; assay: In vivo fungicidal evaluation, Tomato Early Blight (TEB); settings: 200 ppm, plants sprayed before inoculation

Row | Compound | disease control rating, RB [1] | disease control rating, GDM [2] | growth inhibition rating, PSDCHE [3] | disease control rating, WPM [4] | disease control rating, PB [5] | disease control rating, AS [6] | growth inhibition rating, FUSOXC [7] | growth inhibition rating, RHIZSO [8] | growth inhibition rating, PYTHUL [9] | disease control rating, SBC ([10]; 200 ppm) | disease control rating, TEB [11] | disease control rating, SBC ([10]; 400 ppm)
1 | C=CC(=O)ON(C)C(=S)C(=O)C(C)(C)C [acrylate ester of N,3,3-trimethyl-2-oxo-1-thiobutyrohydroxamate] | 0.0 | 0.0 | 7.0 | 0.0 | 2.0 | 0.0 | 0.0 | 0.0 | 9.0 | 0.0 | 0.0 | 
2 | CC(C)(C)C(=O)C(=S)N(O)C1CCCC1 [N-cyclopentyl-3,3-dimethyl-2-oxo-1-thiobutyrohydroxamic acid] | 0.0 | 0.0 | 1.5 | 0.0 | 0.0 | 0.0 | 1.5 | 1.5 | 3.0 | 0.3 | 0.0 | 
3 | CC(C)(C)C(=O)C(=S)N([O-])C1CCCC1.CC(C)(C)C(=O)C(=S)N([O-])C1CCCC1.[Cu+2] [N-cyclopentyl-3,3-dimethyl-2-oxo-1-thiobutyrohydroxamic acid copper(+2) chelate] | 0.0 | 0.0 | 0.0 | 0.0 | 0.0 | 0.0 | 0.0 | 0.0 | 0.0 | 0.5 | 0.0 | 2.0
4 | CN(O)C(=S)C(=O)C1(C)CC1 [N,1-dimethyl-alpha-thio-cyclopropaneglyoxylohydroxamic acid] |  |  | 0.0 |  |  |  | 0.5 | 0.0 | 7.0 |  |  | 
5 | CC(=O)ON(C)C(=S)C(=O)C(C)(C)C [acetate ester of N,3,3-trimethyl-2oxo-1-thiobutyrohydroxamate] | 0.0 | 0.0 | 0.0 | 0.0 | 0.0 | 0.0 | 0.0 | 0.0 | 9.0 | 0.0 | 5.0 | 
6 | COC(=O)ON(C)C(=S)C(=O)C(C)(C)C [methylcarbonate ester of N,3,3-trimethyl-2-oxo-1thiobutyrohydroxamate] | 0.0 | 0.0 | 0.0 | 0.0 | 0.0 | 0.0 | 0.0 | 0.0 | 5.0 | 0.0 | 2.0 | 
7 | CN(O)C(=S)C(=O)C12CC3CC(CC(C3)C1)C2 [N-methyl-α-thio-1-adamantaneglyoxylohydroxamic acid] | 0.0 | 0.0 | 3.3 | 0.0 | 0.0 | 0.0 | 1.7 | 1.0 | 7.0 | 1.8 | 0.0 | 3.0
8 | N-methyl-alpha-thio-1-adamantaneglyoxylohydroxamic acid zinc(+2) chelate | 0.0 | 0.0 | 0.0 | 0.0 | 0.0 | 0.0 | 0.0 | 0.0 | 1.5 | 0.5 | 0.0 | 3.0
9 | CC(C)(C)C(=O)C(=S)N(O)C1CCCC1.CC(C)(C)C(=O)C(=S)N(O)C1CCCC1.[Zn+2] [N-cyclopentyl-3,3-dimethyl-2-oxo-1-thiobutyrohydroxamic acid zinc(+2) chelate] | 0.0 | 0.0 | 3.0 | 0.0 | 0.0 | 0.0 | 3.7 | 3.3 | 7.0 | 2.3 | 0.0 | 1.0
10 | CC(C)(C)C(=O)C(=S)N([O-])Cc1ccccc1.CC(C)(C)C(=O)C(=S)N([O-])Cc1ccccc1.[Cu+2] [N-benzyl-3,3-dimethyl-2-oxo-1-thiobutyrohydroxamic acid copper(+2) chelate] |  |  | 0.0 |  |  |  | 0.0 | 1.5 | 1.5 |  |  | 
11 | CC(C)N([O-])C(=S)C(=O)C(C)(C)C.CC(C)N([O-])C(=S)C(=O)C(C)(C)C.[Zn+2] [N-isopropyl-3,3-dimethyl-2-oxo-1-thiobutyrohydroxamic acid zinc (+2) chelate] | 0.0 | 3.0 | 0.0 | 0.0 | 2.0 | 0.0 | 2.7 | 1.0 | 6.3 | 0.0 | 0.0 | 
12 | CC(C)(C)C(=O)C(=S)N(O)Cc1ccccc1 [N-benzyl-3,3-dimethyl-2-oxo-1-thiobutyrohydroxamic acid] |  |  | 7.0 |  |  |  | 3.5 | 4.5 | 7.0 |  |  | 
13 | CC(C)(C)C(=O)C(=S)N(Cc1ccccc1)OC(=O)Nc1ccccc1 [Carbanilate ester of N-benzyl-3,3-dimethyl-2-oxo-1-thiobutyrohydroxamate] |  |  | 0.0 |  |  |  | 0.5 | 2.5 | 6.0 |  |  | 
14 | CN(OC(=O)c1ccc(Cl)cc1)C(=S)C(=O)C(C)(C)C [p-Chlorobenzoate ester of N,3,3-trimethyl-2-oxo-1-thiobutyrohydroxamate] | 6.0 | 0.0 | 0.0 | 3.0 | 8.0 | 8.0 | 0.0 | 0.0 | 0.0 | 4.0 | 6.0 | 
